Measured values taken from patent publication US20210163471A1, “PROGRANULIN MODULATORS AND METHODS OF USING THE SAME” (ARKUDA THERAPEUTICS, priority 2017, published 2021).
Read-outs that look alike come from different tables or passages of the source.

Test system: BV-2 (mouse microglia) cells
Test: progranulin secretion from BV-2 cells, mouse progranulin ELISA of conditioned media
Assay type: cell-based
Settings: BV-2 cells, 16 hours incubation, 8-point curves starting at 10 μM
Method: BV-2 cells are split the day before plating into a 96 well plate format at approximately 80%. Cells should be plated the day before and allowed for 1 hour attachment period and for 16 hour incubation. […] Standard ELISA kits to measure PGRN are available from vendors such as Adipogen, R&D, and Biovendor.
Compound potency was determined by measuring progranulin secretion from BV-2 (mouse microglia) cells. BV-2 cells were grown in RPMI with 2 mM L-glutamine supplemented with 10% fetal bovine serum. On the day of the assay, cells were plated in 96-well plates at a density of 30,000 cells/well in RPMI (Roswell Park Memorial Institute media)/L-glutamine supplemented with 2% Fetal clone serum II (plating media) and left to adhere for 1 hour. Following attachment to the plate, media was replaced with treatment (8-point curves in half-log dilutions starting at 10 μM) in plating media and incubated for 16 hours. Secreted progranulin was measured from a 1:10 dilution of the conditioned media using the R&D Systems mouse progranulin ELISA kit (cat #DY2557) and following the manufacturer's instructions.

[1] = Mus musculus, BV-2, 16 h, assay run v1, read-out: PRGN v1 (EC50, progranulin secretion)
[2] = Mus musculus, assay run v1, read-out: PRGN v1 (EC50, progranulin secretion)
[3] = Mus musculus, BV-2, 16 h, assay run v2 (same protocol, different assay), read-out: PRGN v2 (EC50, progranulin secretion)
[4] = assay run v2 (same protocol, different assay), read-out: PRGN v2 (EC50, progranulin secretion)

Compound | EC50 [1] | other results
O=C(C[C@@H]1CN2CCC1CC2)N1CCc2ccccc2[C@@H]1c1ccc(Cl)cc1 [Compound 1049] | 0.21 µM | –
CC1(C)[C@@H](NC(=O)N2CCc3ccccc3[C@@H]2c2ccc(Cl)cc2)C2CCN1CC2 [Compound 1050] | 0.36 µM | –
O=C(C[C@H]1CN2CCC1CC2)N1CCc2ccccc2[C@@H]1c1ccccc1 [Compound 1051] | 1.37 µM | –
CS(=O)(=O)c1ccc([C@H]2c3ccccc3CCN2C(=O)C[C@@H]2CN3CCC2CC3)cc1 [Compound 1052] | > 10 µM | –
O=C(C[C@@H]1CN2CCC1CC2)N1CCc2ccccc2[C@@H]1c1ccc(F)cc1F [Compound 1053] | 0.96 µM | –
O=C(C[C@@H]1CN2CCC1CC2)N1CCc2ccccc2[C@@H]1c1ccc(-n2cncn2)cc1 [Compound 1054] | > 10 µM | –
O=C(C[C@@H]1CN2CCC1CC2)N1CCc2ccccc2[C@H]1c1ccc(-n2cncn2)cc1 [Compound 1055] | > 10 µM | –
COc1ccc([C@H]2c3ccccc3CCN2C(=O)C[C@@H]2CN3CCC2CC3)cc1 [Compound 1056] | 3.72 µM | –
COc1ccc([C@@H]2c3ccccc3CCN2C(=O)C[C@@H]2CN3CCC2CC3)cc1 [Compound 1057] | 4.2 µM | –
O=C(C[C@@H]1CN2CCC1CC2)N1CCc2ccccc2[C@@H]1c1ccc(F)cc1 [Compound 1058] | – | EC50 [2]: 0.22 µM
O=C(C[C@@H]1CN2CCC1CC2)N1CCc2ccccc2[C@H]1c1ccc(F)cc1 [Compound 1059] | – | EC50 [2]: > 10 µM
COc1ccc([C@H]2c3ccccc3CCN2C(=O)C[C@@H]2CN3CCC2CC3)cc1F [Compound 1060] | > 10 µM | EC50 [3]: 2.07 µM
COc1ccc([C@@H]2c3ccccc3CCN2C(=O)C[C@@H]2CN3CCC2CC3)cc1F [Compound 1061] | > 10 µM | EC50 [3]: > 10 µM
O=C(C[C@@H]1CN2CCC1CC2)N1CCc2ccccc2[C@@H]1c1cccc(F)c1 [Compound 1062] | 1.1 µM | EC50 [3]: > 6.1 µM
O=C(C[C@@H]1CN2CCC1CC2)N1CCc2ccccc2[C@H]1c1cccc(F)c1 [Compound 1063] | > 10 µM | EC50 [3]: > 10 µM
O=C(C[C@@H]1CN2CCC1CC2)N1CCc2ccccc2[C@@H]1c1ccc(F)c(F)c1 [Compound 1064] | 2.71 µM | EC50 [3]: 1.83 µM
O=C(C[C@@H]1CN2CCC1CC2)N1CCc2ccccc2[C@H]1c1ccc(F)c(F)c1 [Compound 1065] | > 10 µM | EC50 [3]: > 10 µM
O=C1CCCN1c1ccc([C@H]2c3ccccc3CCN2C(=O)C[C@@H]2CN3CCC2CC3)cc1 [Compound 1066] | > 10 µM | EC50 [3]: > 10 µM
O=C1CCCN1c1ccc([C@@H]2c3ccccc3CCN2C(=O)C[C@@H]2CN3CCC2CC3)cc1 [Compound 1067] | > 10 µM | EC50 [3]: > 10 µM
O=C(C[C@@H]1CN2CCC1CC2)N1CCc2ccccc2[C@@H]1c1ccc(OC2CC2)cc1 [Compound 1068] | 6.14 µM | EC50 [3]: > 10 µM
O=C(C[C@@H]1CN2CCC1CC2)N1CCc2ccccc2[C@H]1c1ccc(OC2CC2)cc1 [Compound 1069] | > 10 µM | EC50 [3]: > 10 µM

Compound | EC50 [1] | other results
O=C(N[C@@H]1CN2CCC1CC2)N1CCc2ccccc2[C@@H]1c1ccc(F)cc1 [Compound 1070] | – | EC50 [2]: 0.18 µM; EC50 (Mus musculus, assay run v2 (same protocol, different assay), read-out: PRGN v2 (EC50, progranulin secretion)): 0.26 µM
O=C(N[C@@H]1CN2CCC1CC2)N1CCc2ccccc2[C@H]1c1ccc(F)cc1 [Compound 1071] | – | EC50 [2]: 0.41 µM
CS(=O)(=O)c1ccc([C@H]2c3ccccc3CCN2C(=O)N[C@@H]2CN3CCC2CC3)cc1 [Compound 1072, (S)-1-(4-(methylsulfonyl)phenyl)-N—((S)-quinuclidin-3-yl)-3,4-dihydroisoquinoline-2(1H)-carboxamide] | > 4.41 µM | –
COc1ccc([C@H]2c3ccccc3CCN2C(=O)N[C@@H]2CN3CCC2CC3)cc1 [Compound 1073] | 4.96 µM | –
COc1ccc([C@@H]2c3ccccc3CCN2C(=O)N[C@@H]2CN3CCC2CC3)cc1 [Compound 1074] | > 10 µM | –
O=C(N[C@@H]1CN2CCC1CC2)N1CCc2ccccc2[C@@H]1c1ccc(F)c(F)c1 [Compound 1075] | 0.19 µM | –
O=C(N[C@@H]1CN2CCC1CC2)N1CCc2ccccc2[C@H]1c1ccc(F)c(F)c1 [Compound 1076] | > 10 µM | –
O=C(N[C@@H]1CN2CCC1CC2)N1CCc2ccccc2[C@@H]1c1ccncc1 [Compound 1077] | > 10 µM | –
O=C(N[C@@H]1CN2CCC1CC2)N1CCc2ccccc2[C@H]1c1ccncc1 [Compound 1078] | > 10 µM | –
O=C(N[C@@H]1CN2CCC1CC2)N1CCc2ccccc2[C@@H]1c1ccc2nccn2c1 [Compound 1079] | 3.69 µM | –
O=C(N[C@@H]1CN2CCC1CC2)N1CCc2ccccc2[C@H]1c1ccc2nccn2c1 [Compound 1080] | > 10 µM | –
O=C(N[C@@H]1CN2CCC1CC2)N1CCc2ccccc2[C@@H]1c1ccc(Cl)cc1 [Compound 1081] | 0.25 µM | –
O=C(N[C@@H]1CN2CCC1CC2)N1CCc2ccccc2[C@H]1c1ccc(Cl)cc1 [Compound 1082] | 1.6 µM | –
COc1ccc([C@H]2c3ccccc3CCN2C(=O)N[C@@H]2CN3CCC2CC3)cn1 [Compound 1083] | 2.55 µM | –
COc1ccc([C@@H]2c3ccccc3CCN2C(=O)N[C@@H]2CN3CCC2CC3)cn1 [Compound 1084] | > 3.16 µM | –
O=C(N[C@@H]1CN2CCC1CC2)N1CCc2ccccc2[C@@H]1c1cccnc1 [Compound 1085] | 1.78 µM | –
O=C(N[C@@H]1CN2CCC1CC2)N1CCc2ccccc2[C@H]1c1cccnc1 [Compound 1086] | 3.13 µM | –
CC(C)Oc1ccc([C@H]2c3ccccc3CCN2C(=O)N[C@@H]2CN3CCC2CC3)cc1 [Compound 1087] | > 10 µM | –
CC(C)Oc1ccc([C@@H]2c3ccccc3CCN2C(=O)N[C@@H]2CN3CCC2CC3)cc1 [Compound 1088] | > 10 µM | –
CC1([C@H]2c3ccccc3CCN2C(=O)N[C@@H]2CN3CCC2CC3)COC1 [Compound 1089] | > 10 µM | –
CC1([C@@H]2c3ccccc3CCN2C(=O)N[C@@H]2CN3CCC2CC3)COC1 [Compound 1090] | > 10 µM | –

Compound | EC50 [1] | other results
O=C(N[C@@H]1CN2CCC1CC2)N1CCc2ccccc2[C@@H]1c1ccc(OCc2ccccc2)cc1 [Compound 1091] | 0.34 µM | –
O=C(N[C@@H]1CN2CCC1CC2)N1CCc2ccccc2[C@H]1c1ccc(OCc2ccccc2)cc1 [Compound 1092] | 2.21 µM | –
O=C(N[C@@H]1CN2CCC1CC2)N1CCc2ccccc2[C@@H]1c1ccc(O)cc1 [Compound 1093] | > 3.16 µM | –
O=C(N[C@@H]1CN2CCC1CC2)N1CCc2ccccc2[C@H]1c1ccc(O)cc1 [Compound 1094] | 1.29 µM | –
O=C(N[C@@H]1CN2CCC1CC2)N1CCc2ccccc2[C@@H]1c1ccc(-n2ccnc2)cc1 [Compound 1095] | > 10 µM | –
O=C(N[C@@H]1CN2CCC1CC2)N1CCc2ccccc2[C@H]1c1ccc(-n2ccnc2)cc1 [Compound 1096] | 0.45 µM | –
O=C(N[C@@H]1CN2CCC1CC2)N1CCc2ccccc2[C@@H]1c1ccn2cncc2c1 [Compound 1097] | > 10 µM | –
O=C(N[C@@H]1CN2CCC1CC2)N1CCc2ccccc2[C@H]1c1ccn2cncc2c1 [Compound 1098] | > 10 µM | –
O=C(N[C@@H]1CN2CCC1CC2)N1CCc2ccccc2[C@@H]1c1ccc(-n2ccnn2)cc1 [Compound 1099] | > 10 µM | –
O=C(N[C@@H]1CN2CCC1CC2)N1CCc2ccccc2[C@H]1c1ccc(-n2ccnn2)cc1 [Compound 1100] | > 10 µM | –
O=C(N[C@@H]1CN2CCC1CC2)N1CCc2ccccc2[C@@H]1c1ccc(-n2cncn2)cc1 [Compound 1101] | 3.85 µM | –
O=C(N[C@@H]1CN2CCC1CC2)N1CCc2ccccc2[C@H]1c1ccc(-n2cncn2)cc1 [Compound 1102] | > 10 µM | –
O=C(N[C@@H]1CN2CCC1CC2)N1CCc2ccccc2[C@@H]1c1ccc(N2CCCC2)cc1 [Compound 1103] | > 10 µM | –
O=C(N[C@@H]1CN2CCC1CC2)N1CCc2ccccc2[C@H]1c1ccc(N2CCCC2)cc1 [Compound 1104] | 5.09 µM | –
O=C(N[C@@H]1CN2CCC1CC2)N1CCc2ccccc2[C@@H]1c1ccn2ccnc2c1 [Compound 1105] | > 10 µM | EC50 [3]: > 10 µM
O=C(N[C@@H]1CN2CCC1CC2)N1CCc2ccccc2[C@H]1c1ccn2ccnc2c1 [Compound 1106] | > 10 µM | EC50 [3]: > 10 µM
O=C(N[C@@H]1CN2CCC1CC2)N1CCc2ccccc2[C@@H]1c1ccc2cccn2c1 [Compound 1107] | 5.43 µM | EC50 [4]: 3.7 µM
O=C(N[C@@H]1CN2CCC1CC2)N1CCc2ccccc2[C@@H]1c1ccc2cccn2c1 [Compound 1108] | – | EC50 (assay run v1, read-out: PRGN v1 (EC50, progranulin secretion)): 5.63 µM; EC50 [4]: > 10 µM
O=C(N[C@@H]1CN2CCC1CC2)N1CCc2ccccc2[C@@H]1c1cccc(F)c1 [Compound 1109] | 1.03 µM | EC50 [3]: 1.44 µM
O=C(N[C@@H]1CN2CCC1CC2)N1CCc2ccccc2[C@H]1c1cccc(F)c1 [Compound 1110] | 6.19 µM | EC50 [3]: > 10 µM
O=C(N[C@@H]1CN2CCC1CC2)N1CCc2ccccc2[C@@H]1c1ccc2cncn2c1 [Compound 1111] | 9.91 µM | EC50 [3]: > 10 µM
